Measurements published in ChEMBL document CHEMBL3585344, “Thiazole-based aminopyrimidines and N-phenylpyrazolines as potent antimicrobial agents: synthesis and biological evaluation” (2014).
≈ marks a conversion by molar mass, not a printed value.

How the values were obtained:
Listeria monocytogenes [1] = experiment: Bactericidal activity against Listeria monocytogenes NCTC 7973 after 72 hrs by microdilution method; type: functional
Aspergillus flavus [2] = experiment: Antifungal activity against Aspergillus flavus ATCC 9643 after 72 hrs by microdilution method; type: functional; details: ATCC 9643, 72 h
Aspergillus ochraceus [3] = experiment: Fungicidal activity against Aspergillus ochraceus ATCC 12066 after 72 hrs by microdilution method; type: functional
Enterobacter cloacae [4] = experiment: Antibacterial activity against Enterobacter cloacae ATCC 35030 isolated from human after 24 hrs by microdilution method; type: functional; details: ATCC 35030, 24 h
Micrococcus flavus [5] = experiment: Antibacterial activity against Micrococcus flavus ATCC 10240 after 24 hrs by microdilution method; type: functional; details: ATCC 10240, 24 h
Micrococcus flavus [6] = experiment: Bactericidal activity against Micrococcus flavus ATCC 10240 after 72 hrs by microdilution method; type: functional
Enterobacter cloacae [7] = experiment: Bactericidal activity against Enterobacter cloacae ATCC 35030 isolated from human after 72 hrs by microdilution method; type: functional
Talaromyces funiculosus [8] = experiment: Fungicidal activity against Penicillium funiculosum ATCC 36839 after 72 hrs by microdilution method; type: functional
Aspergillus ochraceus [9] = experiment: Antifungal activity against Aspergillus ochraceus ATCC 12066 after 72 hrs by microdilution method; type: functional; details: ATCC 12066, 72 h
Bacillus cereus [10] = experiment: Bactericidal activity against Bacillus cereus clinical isolate after 72 hrs by microdilution method; type: functional
Salmonella typhimurium [11] = experiment: Bactericidal activity against Salmonella typhimurium ATCC 13311 after 72 hrs by microdilution method; type: functional, Salmonella enterica subsp. enterica serovar Typhimurium
Penicillium ochrochloron [12] = experiment: Fungicidal activity against Penicillium ochrochloron ATCC 9112 after 72 hrs by microdilution method; type: functional
Aspergillus niger [13] = experiment: Antifungal activity against Aspergillus niger ATCC 6275 after 72 hrs by microdilution method; type: functional; details: ATCC 6275, 72 h
Aspergillus fumigatus [14] = experiment: Fungicidal activity against Aspergillus fumigatus isolated from human after 72 hrs by microdilution method; type: functional
Staphylococcus aureus [15] = experiment: Bactericidal activity against Staphylococcus aureus ATCC 6538 after 72 hrs by microdilution method; type: functional
Escherichia coli [16] = experiment: Bactericidal activity against Escherichia coli ATCC 35210 after 72 hrs by microdilution method; type: functional
Penicillium ochrochloron [17] = experiment: Antifungal activity against Penicillium ochrochloron ATCC 9112 after 72 hrs by microdilution method; type: functional; details: ATCC 9112, 72 h
Pseudomonas aeruginosa [18] = experiment: Bactericidal activity against Pseudomonas aeruginosa ATCC 27853 after 72 hrs by microdilution method; type: functional
Pseudomonas aeruginosa [19] = experiment: Antibacterial activity against Pseudomonas aeruginosa ATCC 27853 after 24 hrs by microdilution method; type: functional; details: ATCC 27853, 24 h
Trichoderma viride [20] = experiment: Fungicidal activity against Trichoderma viride IAM 5061 after 72 hrs by microdilution method; type: functional
Candida albicans [21] = experiment: Fungicidal activity against Candida albicans ATCC 10231 isolated from human after 72 hrs by microdilution method; type: functional
Escherichia coli [22] = experiment: Antibacterial activity against Escherichia coli ATCC 35210 after 24 hrs by microdilution method; type: functional; details: ATCC 35210, 24 h
Bacillus cereus [23] = experiment: Antibacterial activity against Bacillus cereus clinical isolate after 24 hrs by microdilution method; type: functional
Aspergillus flavus [24] = experiment: Fungicidal activity against Aspergillus flavus ATCC 9643 after 72 hrs by microdilution method; type: functional
Aspergillus niger [25] = experiment: Fungicidal activity against Aspergillus niger ATCC 6275 after 72 hrs by microdilution method; type: functional
Aspergillus fumigatus [26] = experiment: Antifungal activity against Aspergillus fumigatus isolated from human after 72 hrs by microdilution method; type: functional
Staphylococcus aureus [27] = experiment: Antibacterial activity against Staphylococcus aureus ATCC 6538 after 24 hrs by microdilution method; type: functional; details: ATCC 6538, 24 h
Salmonella typhimurium [28] = experiment: Antibacterial activity against Salmonella typhimurium ATCC 13311 after 24 hrs by microdilution method; type: functional, Salmonella enterica subsp. enterica serovar Typhimurium; details: Salmonella enterica, ATCC 13311, 24 h
Talaromyces funiculosus [29] = experiment: Antifungal activity against Penicillium funiculosum ATCC 36839 after 72 hrs by microdilution method; type: functional; details: ATCC 36839, 72 h
Listeria monocytogenes [30] = experiment: Antibacterial activity against Listeria monocytogenes NCTC 7973 after 24 hrs by microdilution method; type: functional; details: NCTC 7973, 24 h
Candida albicans [31] = experiment: Antifungal activity against Candida albicans ATCC 10231 isolated from human after 72 hrs by microdilution method; type: functional; details: ATCC 10231, 72 h
Trichoderma viride [32] = experiment: Antifungal activity against Trichoderma viride IAM 5061 after 72 hrs by microdilution method; type: functional; details: IAM 5061, 72 h
Enterococcus faecalis [33] = experiment: Antibacterial activity against Enterococcus faecalis ATCC 7080 isolated from human after 24 hrs by microdilution method; type: functional; details: ATCC 7080, 24 h
Aspergillus versicolor [34] = experiment: Fungicidal activity against Aspergillus versicolor ATCC 11730 after 72 hrs by microdilution method; type: functional
Aspergillus versicolor [35] = experiment: Antifungal activity against Aspergillus versicolor ATCC 11730 after 72 hrs by microdilution method; type: functional; details: ATCC 11730, 72 h
Enterococcus faecalis [36] = experiment: Bactericidal activity against Enterococcus faecalis ATCC 7080 isolated from human after 72 hrs by microdilution method; type: functional

Compound	MBC99.5 (Listeria monocytogenes [1]) [×10⁻² umol/ml]	MIC (Aspergillus flavus [2]) [µM]	MFC99.5 (Aspergillus ochraceus [3]) [×10⁻² umol/ml]	MIC (Micrococcus flavus [5]) [µM]	MBC99.5 (Micrococcus flavus [6]) [×10⁻² umol/ml]	MFC99.5 (Talaromyces funiculosus [8]) [×10⁻² umol/ml]	MIC (Aspergillus ochraceus [9]) [µM]	MBC99.5 (Bacillus cereus [10]) [×10⁻² umol/ml]	MBC99.5 (Salmonella typhimurium [11]) [×10⁻² umol/ml]	MFC99.5 (Penicillium ochrochloron [12]) [×10⁻² umol/ml]	MIC (Aspergillus niger [13]) [µM]	MFC99.5 (Aspergillus fumigatus [14]) [×10⁻² umol/ml]	MBC99.5 (Staphylococcus aureus [15]) [×10⁻² umol/ml]	MBC99.5 (Escherichia coli [16]) [×10⁻² umol/ml]	MIC (Penicillium ochrochloron [17]) [µM]	MBC99.5 (Pseudomonas aeruginosa [18]) [×10⁻² umol/ml]	MIC (Pseudomonas aeruginosa [19]) [µM]	MFC99.5 (Trichoderma viride [20]) [×10⁻² umol/ml]	MIC (Escherichia coli [22]) [µM]	MIC (Bacillus cereus [23]) [µM]	other results
CNc1nc(C)c(-c2cc(-c3ccccc3)nc(N)n2)s1	11.81	50.5 (≈ 15 µg/mL)	6.74	33.7 (≈ 10 µg/mL)	8.41	6.74	33.7 (≈ 10 µg/mL)	6.74	6.74	5.05	50.5 (≈ 15 µg/mL)	6.74	10.1	6.74	33.7 (≈ 10 µg/mL)	6.74	33.7 (≈ 10 µg/mL)	3.37	33.7 (≈ 10 µg/mL)	33.7 (≈ 10 µg/mL)	MIC (Enterobacter cloacae [4]): 67.4 µM (≈ 20 µg/mL); MBC99.5 (Enterobacter cloacae [7]): 8.41 ×10⁻² umol/ml; MFC99.5 (Candida albicans [21]): 6.74 ×10⁻² umol/ml; MFC99.5 (Aspergillus flavus [24]): 6.74 ×10⁻² umol/ml; MFC99.5 (Aspergillus niger [25]): 6.74 ×10⁻² umol/ml; MIC (Aspergillus fumigatus [26]): 50.5 µM (≈ 15 µg/mL); MIC (Staphylococcus aureus [27]): 84.1 µM (≈ 25 µg/mL); MIC (Salmonella typhimurium [28]): 33.7 µM (≈ 10 µg/mL); MIC (Talaromyces funiculosus [29]): 33.7 µM (≈ 10 µg/mL); MIC (Listeria monocytogenes [30]): 101 µM (≈ 30 µg/mL); MIC (Candida albicans [31]): 33.7 µM (≈ 10 µg/mL); MIC (Trichoderma viride [32]): 25.2 µM (≈ 7.49 µg/mL)
CNc1nc(C)c(C2=NN(c3ccccc3)C(c3ccc(F)cc3)C2)s1 (stereo unspecified)	95.5	54.6 (≈ 20 µg/mL)	27.3	54.6 (≈ 20 µg/mL)	47.8	27.3	54.6 (≈ 20 µg/mL)	27.3	27.3	47.8	478 (≈ 175 µg/mL)	10.92	27.3	47.8	214 (≈ 78.4 µg/mL)	27.3	27.3 (≈ 10 µg/mL)	47.8	54.6 (≈ 20 µg/mL)	54.6 (≈ 20 µg/mL)	MIC (Enterococcus faecalis [33]): 54.6 µM (≈ 20 µg/mL); MFC99.5 (Aspergillus versicolor [34]): 21.4 ×10⁻² umol/ml; MIC (Aspergillus versicolor [35]): 54.6 µM (≈ 20 µg/mL); MFC99.5 (Aspergillus flavus [24]): 47.8 ×10⁻² umol/ml; MFC99.5 (Aspergillus niger [25]): 95.5 ×10⁻² umol/ml; MIC (Aspergillus fumigatus [26]): 54.6 µM (≈ 20 µg/mL); MIC (Staphylococcus aureus [27]): 27.3 µM (≈ 10 µg/mL); MIC (Salmonella typhimurium [28]): 54.6 µM (≈ 20 µg/mL); MBC99.5 (Enterococcus faecalis [36]): 27.3 ×10⁻² umol/ml; MIC (Talaromyces funiculosus [29]): 109 µM (≈ 40 µg/mL); MIC (Listeria monocytogenes [30]): 54.6 µM (≈ 20 µg/mL); MIC (Trichoderma viride [32]): 109 µM (≈ 40 µg/mL)
CC1(C)S[C@@H]2[C@H](NC(=O)[C@H](N)c3ccccc3)C(=O)N2[C@H]1C(=O)O [AMPICILLIN]	74.4	–	–	248 (≈ 86.7 µg/mL)	37.2	–	–	37.2	49.2	–	–	–	37.2	49.2	–	124	744 (≈ 260 µg/mL)	–	372 (≈ 130 µg/mL)	248 (≈ 86.7 µg/mL)	MIC (Enterobacter cloacae [4]): 248 µM (≈ 86.7 µg/mL); MBC99.5 (Enterobacter cloacae [7]): 37.2 ×10⁻² umol/ml; MIC (Enterococcus faecalis [33]): 248 µM (≈ 86.7 µg/mL); MIC (Staphylococcus aureus [27]): 248 µM (≈ 86.7 µg/mL); MIC (Salmonella typhimurium [28]): 248 µM (≈ 86.7 µg/mL); MBC99.5 (Enterococcus faecalis [36]): 37.2 ×10⁻² umol/ml; MIC (Listeria monocytogenes [30]): 372 µM (≈ 130 µg/mL)
c1ccc(-c2ccc(C(c3ccccc3)n3ccnc3)cc2)cc1 (stereo unspecified) [BIFONAZOLE]	–	480 (≈ 149 µg/mL)	80	–	–	80	480 (≈ 149 µg/mL)	–	–	64	480 (≈ 149 µg/mL)	64	–	–	480 (≈ 149 µg/mL)	–	–	80	–	–	MFC99.5 (Aspergillus versicolor [34]): 64 ×10⁻² umol/ml; MIC (Aspergillus versicolor [35]): 480 µM (≈ 149 µg/mL); MFC99.5 (Candida albicans [21]): 48.3 ×10⁻² umol/ml; MFC99.5 (Aspergillus flavus [24]): 64 ×10⁻² umol/ml; MFC99.5 (Aspergillus niger [25]): 64 ×10⁻² umol/ml; MIC (Aspergillus fumigatus [26]): 480 µM (≈ 149 µg/mL); MIC (Talaromyces funiculosus [29]): 640 µM (≈ 199 µg/mL); MIC (Candida albicans [31]): 322 µM (≈ 99.9 µg/mL); MIC (Trichoderma viride [32]): 640 µM (≈ 199 µg/mL)
CC(=O)N1CCN(c2ccc(OCC3COC(Cn4ccnc4)(c4ccc(Cl)cc4Cl)O3)cc2)CC1 (stereo unspecified) [KETOCONAZOLE]	–	2850 (≈ 1510 µg/mL)	95	–	–	95	380 (≈ 202 µg/mL)	–	–	380	380 (≈ 202 µg/mL)	95	–	–	3800 (≈ 2020 µg/mL)	–	–	570	–	–	MFC99.5 (Aspergillus versicolor [34]): 380 ×10⁻² umol/ml; MIC (Aspergillus versicolor [35]): 2850 µM (≈ 1510 µg/mL); MFC99.5 (Candida albicans [21]): 94 ×10⁻² umol/ml; MFC99.5 (Aspergillus flavus [24]): 380 ×10⁻² umol/ml; MFC99.5 (Aspergillus niger [25]): 95 ×10⁻² umol/ml; MIC (Aspergillus fumigatus [26]): 380 µM (≈ 202 µg/mL); MIC (Talaromyces funiculosus [29]): 380 µM (≈ 202 µg/mL); MIC (Candida albicans [31]): 376 µM (≈ 200 µg/mL); MIC (Trichoderma viride [32]): 4750 µM (≈ 2520 µg/mL)
CN[C@@H]1[C@H](O[C@H]2[C@H](O[C@H]3[C@H](O)[C@@H](O)[C@H](N=C(N)N)[C@@H](O)[C@@H]3N=C(N)N)O[C@@H](C)[C@]2(O)C=O)O[C@@H](CO)[C@H](O)[C@H]1O [STREPTOMYCIN]	51.6	–	–	86 (≈ 50 µg/mL)	17.2	–	–	8.6	34.4	–	–	–	34.4	34.4	–	34.4	172 (≈ 100 µg/mL)	–	172 (≈ 100 µg/mL)	43 (≈ 25 µg/mL)	MIC (Enterobacter cloacae [4]): 43 µM (≈ 25 µg/mL); MBC99.5 (Enterobacter cloacae [7]): 8.6 ×10⁻² umol/ml; MIC (Enterococcus faecalis [33]): 43 µM (≈ 25 µg/mL); MIC (Staphylococcus aureus [27]): 172 µM (≈ 100 µg/mL); MIC (Salmonella typhimurium [28]): 172 µM (≈ 100 µg/mL); MBC99.5 (Enterococcus faecalis [36]): 8.6 ×10⁻² umol/ml; MIC (Listeria monocytogenes [30]): 258 µM (≈ 150 µg/mL)
